Article PMC8996404, “The pharmacokinetics of buserelin after intramuscular administration in pigs and cows” (BMC Veterinary Research, 2022)
Read-outs that look alike come from different tables or passages of the source.

Legend:
[1] = Stability of buserelin in pig plasma (autosampler, benchtop, freeze–thaw); type: in vitro ADME; settings: for Stability, Accuracy Mean ± SD: pig plasma, UPLC-MS/MS
Experimental: (§1) Selectivity has been assessed by comparing the chromatograms of blank plasma samples and those of corresponding items with buserelin to exclude the interfering peaks. The calibration curve was established by spiking the blank matrix with known concentration of buserelin. Limit of detection (LOD) and Limit of quantification (LOQ) were determined as the concentrations of buserelin which produced signal/ noise ratio of 3 and 10, respectively. For linearity of this method, calibration curves were generated by least squares regression method with a weighting factor and regression coefficient. Recovery was determined by comparing the analytical results of the extracted quality control (QC) samples with pure standard solution. The accuracy was assessed as the percentage of the measured concentration to the nominal standard concentration. The precision was expressed by coefficient of variation. Stability was assessed by autosampler, benchtop, freeze–thaw, and stock solution test. The matrix effect was obtained with the area of post-extraction blank plasma samples added with buserelin at two levels with the equivalent concentration standard solutions that added with initiate mobile phase.

[2] = Stability of buserelin in cow plasma (autosampler, benchtop, freeze–thaw); type: in vitro ADME; settings: UPLC-MS/MS
Experimental: as §1

[3] = pigs, cited from earlier work
Experimental: (§2) The Vd was 80.49 ± 43.88 L for pigs and 839.88 ± 174.77 L for cows, which is larger than pigs (304 ± 112 mL/kg) at a single dose 1 mg i.v., and dogs (50.1 ± 2.4 mL/kg) at a single dose 5 mg i.v.. High plasma concentration, high bonding rate, means more drugs cannot across the membrane and barrier. Therefore, binding changes can affect the distribution of drugs. Because protein binding of buserelin is about 15% [2], it is proportional to the body volume and body weight and animals using in this study had larger volume of body water or extracellular water. It has been repo ...

[4] = system: pyroglutamyl-amino-peptidase; settings: enzyme can be isolated from mammalian liver ref 2; cited from earlier work
Experimental: as §2

[5] = cited from earlier work
Source text: After being approved by the European Medicines Agency (EMA) in 1995 [1], there are some pharmacokinetic studies of buserelin been reported in humans and rats following subcutaneous (s.c.), intranasal (i.n.), or intravenous (i.v.) routes. […] High plasma concentration, high bonding rate, means more drugs cannot across the membrane and barrier. Therefore, binding changes can affect the distribution of drugs. Because protein binding of buserelin is about 15% [2], it is proportional to the body volume and body weight and animals using in this study had larger volume of body water or extracellular water. It has been repo ...

CCNC(=O)[C@@H]1CCCN1C(=O)[C@H](CCCNC(=N)N)NC(=O)[C@H](CC(C)C)NC(=O)[C@@H](COC(C)(C)C)NC(=O)[C@H](Cc1ccc(O)cc1)NC(=O)[C@H](CO)NC(=O)[C@H](Cc1c[nH]c2ccccc12)NC(=O)[C@H](Cc1cnc[nH]1)NC(=O)[C@@H]1CCC(=O)N1 [buserelin, Buserelin]
Stability, Accuracy Mean ± SD ([1]; autosampler, concentration 0.5 ng/mL): 0.51 ± 0.04 | Stability, Accuracy Mean ± SD ([1]; autosampler, concentration 20 ng/mL): 19.70 ± 2.32 | Stability, Accuracy Mean ± SD ([1]; benchtop, concentration 0.5 ng/mL): 0.47 ± 0.02 | Stability, Accuracy Mean ± SD ([1]; benchtop, concentration 20 ng/mL): 19.72 ± 1.61 | Stability, Accuracy Mean ± SD ([1]; freeze–thaw, concentration 0.5 ng/mL): 0.51 ± 0.04 | Stability, Accuracy Mean ± SD ([1]; freeze–thaw, concentration 20 ng/mL): 19.95 ± 1.12 | Stability during autosampler, benchtop, freeze–thaw, and stock solution test ([1]; summary statement for pig plasma, cow plasma and stock solution (Table 3)): stable | Stability, Accuracy Mean ± SD ([2]; autosampler, concentration 0.25 ng/mL): 0.24 ± 0.01 | Stability, Accuracy Mean ± SD ([2]; autosampler, concentration 4 ng/mL): 3.90 ± 0.30 | Stability, Accuracy Mean ± SD ([2]; benchtop, concentration 0.25 ng/mL): 0.25 ± 0.02 | Stability, Accuracy Mean ± SD ([2]; benchtop, concentration 4 ng/mL): 3.87 ± 0.41 | Stability, Accuracy Mean ± SD ([2]; freeze–thaw, concentration 0.25 ng/mL): 0.26 ± 0.02 | Stability, Accuracy Mean ± SD ([2]; freeze–thaw, concentration 4 ng/mL): 3.95 ± 0.34 | clearance ([3]; 1 mg per pig i.v. injection, no reference given): 2.0 ± 0.4 mL/min/kg | Vd ([3]; single dose 1 mg i.v. ref 14): 0.304 ± 0.112 L/kg | t1/2 ([3]; single dose of 1 mg i.v. injection ref 14): 103 ± 20 min | Degradation by pyroglutamyl-amino-peptidase [4]: rapidly degraded | tmax ([5]; health volunteers, single dose 5 µg s.c. ref 3): 42 min | tmax ([5]; health volunteers, single dose 150 µg i.n. ref 3): 58 min | tmax ([5]; health volunteers, single dose 300 µg i.n. ref 3): 43.8 min | tmax ([5]; health volunteers, single dose 450 µg i.n. ref 3): 38.8 min | tmax ([5]; health volunteers, single dose 500 µg i.v. ref 3): 20 min | elimination half-time ([5]; human, regardless of the administration route ref 2, 3): 72 to 120 min | tmax ([5]; rats (anesthetized), single dose of 0.1 mg/kg i.n. ref 18): 115 ± 25.2 min | rapid initial half time / t1/2 ([5]; rats, i.v. ref 1): 5 min | t1/2 ([5]; rats, single dose of 6 mg/kg s.c. injection ref 13): 42 min
